{"source": "paper PMC7311426", "about": "“An amphipathic peptide with antibiotic activity against multidrug-resistant Gram-negative bacteria” (Nature Communications, 2020)", "key": {"[1]": {"experiment": "in vitro", "conditions": "human"}, "[2]": {"tested_on": "HEK-293 human embryonic kidney cells", "experiment": "in vitro"}, "[3]": {"tested_on": "HK-2 human kidney proximal tubule cells", "experiment": "in vitro"}, "[4]": {"tested_on": "HepG2 liver hepatocellular carcinoma cells", "experiment": "in vitro"}}, "note": "Residues, ends and D or L forms follow the SMILES beside them.", "data": [{"compound": "CC(C)[C@@H]1NC(=O)[C@H](Cc2ccc(O)cc2)NC(=O)[C@H](Cc2c[nH]c3ccccc23)NC(=O)[C@@H](NC(=O)[C@H](Cc2ccccc2)NC(=O)CN)CSSC[C@@H](C(=O)N[C@@H](CC(N)=O)C(=O)O)NC(=O)[C@H](CCCNC(=N)N)NC(=O)[C@H](CCCNC(=N)N)NC(=O)[C@H](Cc2ccc(O)cc2)NC(=O)[C@@H]2CSSC[C@H](NC1=O)C(=O)N[C@@H](C)C(=O)N[C@@H](CCCNC(=N)N)C(=O)N[C@@H](CCCNC(=N)N)C(=O)N[C@@H](CC(N)=O)C(=O)NCC(=O)N[C@@H](C)C(=O)N[C@@H](CCCNC(=N)N)C(=O)N[C@@H](C(C)C)C(=O)N2", "note": "[AA139] (HELM PEPTIDE1{G.F.C.W.Y.V.C.A.R.R.N.G.A.R.V.C.Y.R.R.C.N}$PEPTIDE1,PEPTIDE1,3:R3-20:R3|PEPTIDE1,PEPTIDE1,7:R3-16:R3$$$V2.0)", "values": [{"measurement": "CC50 at 24 h", "setting": "[1]; HEK-293 cells", "value": "> 300", "unit": "µg/mL"}, {"measurement": "CC50 at 24 h", "setting": "[1]; HK-2 cells", "value": "> 250", "unit": "µg/mL"}, {"measurement": "CC50 at 24 h", "setting": "[1]; HepG2 cells", "value": "> 300", "unit": "µg/mL"}, {"measurement": "CC50 HEK293, Mean", "setting": "[2]", "value": ">300", "unit": "µg/mL"}, {"measurement": "CC50 HK2", "setting": "[3]", "value": ">255", "unit": "µg/mL"}, {"measurement": "CC50 HK2, Mean", "setting": "[3]", "value": ">250", "unit": "µg/mL"}, {"measurement": "CC50 HepG2", "setting": "[4]", "value": ">300", "unit": "µg/mL"}, {"measurement": "CC50 HepG2, Mean", "setting": "[4]", "value": ">300", "unit": "µg/mL"}]}]}
